Measured values from article PMC6767220, “Active Anti-Inflammatory and Hypolipidemic Derivatives of Lorazepam” (Molecules, 2019).
Entries after “also recorded” stand apart in the source; their conditions may differ. Where two headings read alike, the source gives them in different places.

Key:
[1] = target: T1, soybean lipoxygenase-1 (Glycine max, UniProt P08170); test: Inhibition of soybean lipoxygenase; assay type: biochemical
T1 sequence (P08170 1-839): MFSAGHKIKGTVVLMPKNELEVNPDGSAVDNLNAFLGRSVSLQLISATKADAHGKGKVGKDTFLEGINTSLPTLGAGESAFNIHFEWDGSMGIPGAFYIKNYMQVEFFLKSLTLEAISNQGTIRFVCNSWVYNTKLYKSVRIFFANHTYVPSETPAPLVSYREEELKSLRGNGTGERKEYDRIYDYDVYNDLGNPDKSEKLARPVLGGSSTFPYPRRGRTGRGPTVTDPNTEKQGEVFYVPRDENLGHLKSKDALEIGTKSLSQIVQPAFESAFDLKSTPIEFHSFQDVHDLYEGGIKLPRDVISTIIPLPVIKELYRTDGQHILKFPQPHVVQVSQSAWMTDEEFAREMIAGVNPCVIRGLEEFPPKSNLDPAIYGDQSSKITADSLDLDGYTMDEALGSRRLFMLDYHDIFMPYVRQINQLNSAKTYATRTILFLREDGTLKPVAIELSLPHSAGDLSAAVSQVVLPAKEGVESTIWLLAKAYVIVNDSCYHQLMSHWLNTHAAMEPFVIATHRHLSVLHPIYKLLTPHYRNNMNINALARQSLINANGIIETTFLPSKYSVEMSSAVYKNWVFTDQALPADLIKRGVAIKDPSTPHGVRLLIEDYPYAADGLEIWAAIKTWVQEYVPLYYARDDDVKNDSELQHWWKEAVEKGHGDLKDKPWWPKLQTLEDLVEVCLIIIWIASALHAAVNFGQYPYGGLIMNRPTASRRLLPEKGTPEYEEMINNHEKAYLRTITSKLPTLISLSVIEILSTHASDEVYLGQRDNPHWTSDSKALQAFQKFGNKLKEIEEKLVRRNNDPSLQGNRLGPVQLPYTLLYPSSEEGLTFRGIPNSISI
Protocol: The reaction mixture contained the test compounds dissolved in ethanol and soybean lipoxygenase (250 U/mL) in Tris buffer (pH 9). The reaction was initiated by the addition of sodium linoleate (0.1 mM) and monitored for 7 min at 28 °C, by recording the absorbance of a conjugated diene structure at 234 nm. For the estimation of the type of inhibition, the above experiments were repeated, using sodium linoleate at 1 mM, which is higher than the saturating substrate concentration.

[2] = system: carrageenan-induced rat paw oedema; test: Carrageenan-induced rat paw oedema; assay type: in vivo; settings: ip, i.p. 0.15 mmol/kg, 3.5 h post administration, vs controls, read-out: % Oedema Reduction
Protocol: An aqueous solution of carrageenan was prepared (1% w/v) and 0.1 mL of this was injected i.d. into the right hind paw of female rats; the left paw served as control. The tested compounds (suspended in water with a few drops of Tween 80) were given intra peritoneally (i.p.) (0.15 mmol/kg) 5 min prior to the carrageenan injection. After 3.5 h the hind paws were weighed separately. The produced oedema was estimated as paw weight increase.

[3] = system: Triton WR1339 (tyloxapol) induced hyperlipidemia; test: Triton WR1339 (tyloxapol) induced hyperlipidemia: plasma TC, TG, LDL-C; assay type: in vivo; settings: ip, rat plasma, 24 h, tyloxapol 200 mg/kg i.p.; for inhibition in vivo at 50 µmol/kg: dose i.p. 50 µmol/kg; for inhibition in vivo at 150 µmol/kg: dose i.p. 150 µmol/kg; for inhibition in vivo at 300 µmol/kg: dose i.p. 300 µmol/kg; for inhibition in vivo at 500 µmol/kg: dose i.p. 500 µmol/kg
[4] = system: rat hepatic microsomal membrane lipid peroxidation; test: Inhibition of rat hepatic microsomal membrane lipid peroxidation induced by ferrous ascorbate; assay type: biochemical; settings: for Antioxidant activity (lipid peroxidation and DPPH experiments): lipid peroxidation inhibition and DPPH interaction, result in words; for IC50: rat hepatic microsomal fraction, ferrous ascorbate, 45 min incubation
Protocol: The incubation mixture contained heat-inactivated rat hepatic microsomal fraction, ascorbic acid (0.2 mM) in Tris–HCl/KCl buffer (pH 7.4) and the test compounds dissolved in dimethylsulphoxide. The reaction was initiated by FeSO4 (10 µM) and the mixture was incubated at 37 °C. Aliquots were taken at various time intervals for 45 min. Lipid peroxidation was assessed spectrophotometrically (535 against 600 nm) by the determination of 2-thiobarbituric acid (TBA) reactive material.

[5] = Interaction with the stable radical DPPH; settings: DPPH 200 µΜ, 30 min incubation
Protocol: Compounds (in absolute ethanol, final concentration 50–200 µM) were added to an equal volume of an ethanolic solution of DPPH (final concentration 200 µM) at room temperature (22 ± 2 °C). Absorbance (517 nm) was recorded after 30 min [22].

[6] = sodium linoleate 0.1 mM, 7 min incubation, read-out: Lipoxygenase IC50
[7] = read-out: % Reduction LDL-C (LDL cholesterol)
[8] = read-out: % Reduction TC (total cholesterol)
[9] = read-out: % Reduction TG (triglycerides)
[10] = sodium linoleate 0.1 mM, 7 min incubation

Row | SMILES | IC50 [1, 6] | inhibition in vivo at 150 µmol/kg [2] | melting point | inhibition in vivo at 50 µmol/kg [3, 7] | inhibition in vivo at 50 µmol/kg [3, 8] | inhibition in vivo at 50 µmol/kg [3, 9] | other results
1 | CC(C)(C)c1cc(/C=C/C(=O)O)cc(C(C)(C)C)c1O [BHA, (E)-3-(3,5-di-tert-butyl-4-hydroxyphenyl)acrylic acid, reference compound] | > 300 µM |  |  |  |  |  | 
2 | CC(C)Cc1ccc(C(C)C(=O)OC2N=C(c3ccccc3Cl)c3cc(Cl)ccc3NC2=O)cc1 (centres unmarked) [Compound 1, 7-Chloro-5-(2-chlorophenyl)-2-oxo-2,3-dihydro-1H-benzo[e][1,4]diazepin-3-yl 2-(4-isobutylphenyl) propanoate] |  | 68% | 105 to 122 °C | 43% | 44% | 57% | Lipoxygenase % Inhibition ([1]; compound 50 µΜ, sodium linoleate 0.1 mM, 7 min incubation): 14%/50 µΜ; inhibition in vivo at 150 µmol/kg [3, 7]: 56%; inhibition in vivo at 150 µmol/kg [3, 8]: 82%; inhibition in vivo at 150 µmol/kg [3, 9]: 65%
3 | COc1ccc2cc(C(C)C(=O)OC3N=C(c4ccccc4Cl)c4cc(Cl)ccc4NC3=O)ccc2c1 (centres unmarked) [Compound 2, 7-Chloro-5-(2-chlorophenyl)-2-oxo-2,3-dihydro-1H-benzo[e][1,4]diazepin-3-yl 2-(6-methoxynaphthalen-2-yl)propanoate] |  | 46% | 136 to 139 °C | 42% | 60% | 71% | Lipoxygenase IC50 [1, 10]: -
4 | CC(C(=O)OC1N=C(c2ccccc2Cl)c2cc(Cl)ccc2NC1=O)c1cccc(C(=O)c2ccccc2)c1 (centres unmarked) [Compound 3, 7-Chloro-5-(2-chlorophenyl)-2-oxo-2,3-dihydro-1H-benzo[e][1,4]diazepin-3-yl 2-(3-benzoylphenyl)propanoate] | 84 µM | 65% | 195 to 201 °C |  |  |  | 
5 | COc1ccc2c(c1)c(CC(=O)OC1N=C(c3ccccc3Cl)c3cc(Cl)ccc3NC1=O)c(C)n2C(=O)c1ccc(Cl)cc1 (centres unmarked) [Compound 4, 7-Chloro-5-(2-chlorophenyl)-2-oxo-2,3-dihydro-1H-benzo[e][1,4]diazepin-3-yl 2-(1-(4-chlorobenzoyl)-5-methoxy-2-methyl-1H-indol-3-yl)acetate] | 86 µM | 67% | 189 to 191 °C | 60% | 59% | 59% | 
6 | Cc1c(Cl)cccc1Nc1ccccc1C(=O)OC1N=C(c2ccccc2Cl)c2cc(Cl)ccc2NC1=O (centres unmarked) [Compound 5, 7-Chloro-5-(2-chlorophenyl)-2-oxo-2,3-dihydro-1H-benzo[e][1,4]diazepin-3-yl 2-((3-chloro-2-methylphenyl)amino)benzoate] |  | 55% | 206 to 207 °C | 48% | 56% | 57% | Lipoxygenase % Inhibition ([1]; compound 100 µΜ, sodium linoleate 0.1 mM, 7 min incubation): 22%/100 µΜ
7 | O=C(CCCCC1CCSS1)OC1N=C(c2ccccc2Cl)c2cc(Cl)ccc2NC1=O (centres unmarked) [Compound 6, 7-Chloro-5-(2-chlorophenyl)-2-oxo-2,3-dihydro-1H-benzo[e][1,4]diazepin-3-yl 5-(1,2-dithiolan-3-yl)pentanoate] |  | 39% | 184 to 189 °C | 47% | 48% | 39% | IC50 [1]: 60 µM; inhibition in vivo at 150 µmol/kg [3, 7]: 60%; inhibition in vivo at 150 µmol/kg [3, 8]: 82%; inhibition in vivo at 150 µmol/kg [3, 9]: 41%; Antioxidant activity (lipid peroxidation and DPPH experiments) [4]: do not express any antioxidant activity; also recorded: inactive
8 | Cc1c(C)c2c(c(C)c1O)CCC(C)(C(=O)OC1N=C(c3ccccc3Cl)c3cc(Cl)ccc3NC1=O)O2 (centres unmarked) [Compound 7, 7-Chloro-5-(2-chlorophenyl)-2-oxo-2,3-dihydro-1H-benzo[e][1,4]diazepin-3-yl 6-hydroxy-2,5,7,8-tetramethylchroman-2-carboxylate] |  | 56% | 138 to 144 °C |  |  |  | Percent Interaction with DPPH ([5]; compound 50 µΜ): 46%; Percent Interaction with DPPH ([5]; compound 100 µΜ): 82%; Percent Interaction with DPPH ([5]; compound 200 µΜ): 91%; Lipoxygenase IC50 [1, 10]: -; inhibition in vivo at 150 µmol/kg [3, 7]: 69%; inhibition in vivo at 150 µmol/kg [3, 8]: 72%; inhibition in vivo at 150 µmol/kg [3, 9]: 64%; IC50 [4]: 2.5 µM
9 | O=C(Cc1c[nH]c2ccccc12)OC1N=C(c2ccccc2Cl)c2cc(Cl)ccc2NC1=O (centres unmarked) [Compound 9, 7-Chloro-5-(2-chlorophenyl)-2-oxo-2,3-dihydro-1H-benzo[e][1,4]diazepin-3-yl 2-(1H-indol-3-yl)acetate] |  | 43% | 257 to 258 °C |  |  |  | IC50 [1]: 255 µM; Antioxidant activity (lipid peroxidation and DPPH experiments) [4]: do not express any antioxidant activity
10 | CC(C)Cc1ccc(C(C)C(=O)O)cc1 (centres unmarked) [Ibuprofen, reference compound] |  | 36% |  |  |  |  | inhibition in vivo at 300 µmol/kg [3, 7]: 42%; inhibition in vivo at 300 µmol/kg [3, 8]: 41%; inhibition in vivo at 300 µmol/kg [3, 9]: 38%
11 | COc1ccc2c(c1)c(CC(=O)O)c(C)n2C(=O)c1ccc(Cl)cc1 [Indomethacin, reference compound] |  | 42% |  |  |  |  | 
12 | COc1ccc2cc([C@H](C)C(=O)O)ccc2c1 [Naproxen, reference compound] |  | 11% |  |  |  |  | inhibition in vivo at 500 µmol/kg [3, 7]: 26%; inhibition in vivo at 500 µmol/kg [3, 8]: 53%; inhibition in vivo at 500 µmol/kg [3, 9]: 44%
13 | Cc1c(Cl)cccc1Nc1ccccc1C(=O)O [Tolfenamic acid, reference compound] | 170 µM | 24% |  |  |  |  | 
14 | Cc1c(C)c2c(c(C)c1O)CCC(C)(C(=O)O)O2 (centres unmarked) [Trolox, 6-hydroxy-2,5,7,8-tetramethylchroman-2-carboxylic acid, reference compound] | > 300 µM |  |  |  |  |  | Percent Interaction with DPPH ([5]; compound 50 µΜ): 38%; Percent Interaction with DPPH ([5]; compound 100 µΜ): 90%; Percent Interaction with DPPH ([5]; compound 200 µΜ): 92%; IC50 [4]: 25 µM
